The results in this text go back to ChEMBL document CHEMBL1212878, “In vitro ADMET and physicochemical investigations of poly-N-methylated peptides designed to inhibit Abeta aggregation” (Bioorg Med Chem, 2010).

≈ marks a conversion by molar mass, not a printed value. Calls of active or inactive are those of the source. No cut-off for these calls is given here. Square brackets hold non-standard residues; d marks the D form. Peptide text beside a SMILES is read from it. NMeF = CN[C@@H](Cc1ccccc1)C(=O)O; NMeI = CC[C@H](C)[C@H](NC)C(=O)O; NMeL = CN[C@@H](CC(C)C)C(=O)O; NMeV = CN[C@H](C(=O)O)C(C)C; NMeA = CN[C@@H](C)C(=O)O; Sar = CNCC(=O)O Some results are limits rather than exact numbers.

Series [1] can be described thus: Cytotoxicity against rat 2/4/A1 cells assessed as cell viability up to 200 uM after 4 hrs by MTT assay. It is filed as cell-based. The conditions noted are these: read-out: Activity.
Series [2] in a line: Aqueous solubility of the compound at pH 7.4. The format is physicochemical.
The nature of series [3]: Chemical stability of the compound assessed as compound remaining after enzymatic degradation after 24 hrs. The format is physicochemical. The conditions noted are these: read-out: Activity.
Series [4] is described as follows: Apparent permeability across rat 2/4/A1 cells in absence of pronase inhibitor. It is filed as ADME, cell-based.
A short description of series [5]: Inhibition of Amyloid beta aggregation.

As for Ac-IGLMVG-NH2, the viability at 4 h in series [1] came out at 95%. Moreover, in series [2], the solubility is 3 µM. Besides, the remaining at 24 h in series [3] was determined as 20%. Moreover, the Papp in series [4] stood at 3.1 ×10⁻⁶ cm/s.
On to `CC[C@H](C)[C@@H](C(=O)N(C)CC(=O)N(C)[C@@H](CC(C)C)C(=O)N[C@@H](CCSC)C(=O)N(C)[C@H](C(=O)N(C)CC(N)=O)C(C)C)N(C)C(C)=O` (Ac-[NMeI][Sar][NMeL]M[NMeV][Sar]-NH2), for which the viability at 4 h in series [1] turned out to be 95%. In series [2], the solubility is greater than 2500 µM. The remaining at 24 h in series [3] was 100%. The Papp in series [4] amounted to 1.4 ×10⁻⁶ cm/s.
On to `CC(=O)N[C@@H](CCCCN)C(=O)N(C)[C@@H](CC(C)C)C(=O)N(C)[C@H](C(=O)N(C)[C@@H](Cc1ccccc1)C(=O)N(C)[C@@H](Cc1ccccc1)C(=O)N(C)[C@@H](C)C(N)=O)C(C)C` (Ac-K[NMeL][NMeV][NMeF][NMeF][NMeA]-NH2), for which the viability at 4 h in series [1] is 95%. Besides, the solubility in series [2] is 899 µM (≈ 751 µg/mL). In addition, the remaining at 24 h in series [3] is 98%. In addition, the Papp in series [4] stood at 2.3 ×10⁻⁶ cm/s.
Take `CC(=O)N[C@@H](CCCCN)C(=O)N(C)[C@@H](CC(C)C)C(=O)N[C@H](C(=O)N(C)[C@@H](Cc1ccccc1)C(=O)N[C@@H](Cc1ccccc1)C(=O)N(C)[C@@H](C)C(N)=O)C(C)C` (Ac-K[NMeL]V[NMeF]F[NMeA]-NH2): the viability at 4 h in series [1] was 95%. In series [2], the solubility is greater than 2500 µM. The remaining at 24 h in series [3] came out at 94%.
Turning to `CC[C@H](C)[C@@H](C(=O)NCC(=O)N(C)[C@@H](CC(C)C)C(=O)N[C@@H](CCSC)C(=O)N(C)[C@H](C(=O)NCC(N)=O)C(C)C)N(C)C(C)=O` (Ac-[NMeI]G[NMeL]M[NMeV]G-NH2), in series [1], the viability at 4 h was 95%. In series [2], this compound returned a solubility greater than 2500 µM. Further, the remaining at 24 h in series [3] was determined as 94%. Also, in series [4], the Papp was determined as 1.6 ×10⁻⁶ cm/s.
As to Ac-KLVFFA-NH2, the viability at 4 h in series [1] was determined as 95%. Besides, the inhibition result in series [5] is “Active”. The concentration in solution in series [2] (solubility) was 32 µM. In addition, the remaining at 24 h in series [3] is 36%. Moreover, the Papp in series [4] stood at 2.8 ×10⁻⁶ cm/s.
With `CC[C@H](C)[C@H](NC(C)=O)C(=O)N(C)CC(=O)N[C@@H](CC(C)C)C(=O)N[C@@H](CCSC)C(=O)N[C@H](C(=O)N(C)CC(N)=O)C(C)C` (Ac-I[Sar]LMV[Sar]-NH2), the viability at 4 h in series [1] came to 95%. In series [2], this compound yielded a solubility greater than 2500 µM. Also, in series [3], the remaining at 24 h amounted to 60%. Moreover, in series [4], the apparent permeability coefficient (Papp) worked out at 2.2 ×10⁻⁶ cm/s.
With `CC(=O)N[C@@H](CCCCN)C(=O)N[C@@H](CC(C)C)C(=O)N(C)[C@H](C(=O)N[C@@H](Cc1ccccc1)C(=O)N(C)[C@@H](Cc1ccccc1)C(=O)N[C@@H](C)C(N)=O)C(C)C` (Ac-KL[NMeV]F[NMeF]A-NH2), the viability at 4 h in series [1] worked out at 95%. The compound also gave a solubility in series [2] of 1580 µM (≈ 1260 µg/mL). Also, the remaining at 24 h in series [3] amounted to 96%.
